Test results: article PMC9059851 (RSC Advances, 2019)

Assay: Zeta potential measurement
Type: physicochemical
Settings: NanoZS, solutions in pH 7.4 phosphate buffer

Which zeta potential does the source give for `C[C@]12CC[C@H](O)C[C@H]1CC[C@@H]1[C@@H]2CC[C@]2(C)[C@@H](c3ccc(=O)oc3)CC[C@]12O` [bufalin] here?
Its zeta potential is −0.55 mV.
